Drawing on patent publication US10633389B2, “CARM1 inhibitors and uses thereof” (Epizyme, Inc., priority 2013, dated 2020), this text covers IC50 for 38 compounds.

Broadly, the IC50 is the concentration at which inhibition is half-maximal.

SMILES strings stand for the structures.

In test [1] the test system is asymmetric di-methyl PABP1 in RKO cells. The test is described as follows: RKO methylation assay, In Cell Western (ICW) for asymmetric di-methyl PABP1. The format is cell-based. As to conditions: Homo sapiens, RKO, Cellular potencies, ICW PABP1me2a. Summed up:
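In-cell Western on fixed RKO cells after 48 h compound exposure: anti-asymmetric di-methyl PABP1 signal at 800 nm over DRAQ5 DNA signal at 700 nm. Percent inhibition set between DMSO wells and wells with 20 μM reference compound; IC50 curves fitted in triplicate.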

For the next test, the target named is human CARM1 (PRMT4) (Homo sapiens (Human), UniProt Q86X55). Briefly: CARM1 enzyme assay on peptide substrate (3H-SAM Flashplate). To be noted: Biochemical potencies, read-out: Biochem IC50.
Chain of human CARM1 (PRMT4) (Q86X55 other isoform, or with tags, fused parts or gaps isoform Q86X55-1): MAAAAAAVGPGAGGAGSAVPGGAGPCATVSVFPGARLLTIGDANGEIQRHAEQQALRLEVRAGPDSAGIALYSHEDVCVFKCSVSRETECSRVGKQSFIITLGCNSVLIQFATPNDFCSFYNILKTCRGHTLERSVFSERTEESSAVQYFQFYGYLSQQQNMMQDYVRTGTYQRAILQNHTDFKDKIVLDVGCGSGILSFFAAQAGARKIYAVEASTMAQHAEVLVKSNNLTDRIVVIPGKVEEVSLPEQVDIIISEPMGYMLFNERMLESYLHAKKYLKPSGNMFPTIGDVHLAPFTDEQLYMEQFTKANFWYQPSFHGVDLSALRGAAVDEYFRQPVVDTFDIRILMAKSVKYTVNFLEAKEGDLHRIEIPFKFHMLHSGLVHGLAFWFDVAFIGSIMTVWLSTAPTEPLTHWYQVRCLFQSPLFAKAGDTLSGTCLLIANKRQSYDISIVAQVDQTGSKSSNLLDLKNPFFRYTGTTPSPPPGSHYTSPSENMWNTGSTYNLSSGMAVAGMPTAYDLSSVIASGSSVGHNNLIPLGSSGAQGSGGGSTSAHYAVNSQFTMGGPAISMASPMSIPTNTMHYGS

As to `CNCC(O)COc1cccc(-c2nc(NC3CCOCC3)c(C)c(N3CCN(C(C)=O)CC3)n2)c1` (stereo not shown) [Example 643-1a], the IC50 in test [1] was no less than 20 µM; at human CARM1 (PRMT4) it was 1000 to 3000 nM.
For `CNCC(O)COc1cccc(-c2nc(C3CCN(C(=O)N(C)C)CC3)cc(N(C)C3CCOCC3)n2)c1` (stereo not shown) [Example 515-1a] the same measures were 5 to 10 µM and 100 to 1000 nM.
With `CNCC(O)COc1cc(Cl)cc(-c2nc(N[C@@H]3CCOC3)c(C)c(C(=O)N(C)CC3CCOCC3)n2)c1` (stereo partly shown) [Example 353-1a], the results for the half-inhibitory concentration (IC50) (in test [1]; at human CARM1 (PRMT4)) were 10 to 20 µM and 100 to 1000 nM, respectively.
In the case of `CNCC(O)COc1cccc(-c2nc(NC3CCOCC3)c(C)c(-c3c(C)noc3C)n2)c1Cl` (stereo not shown) [Example 79-3], the IC50 in test [1] was no less than 20 µM; on human CARM1 (PRMT4) it was 3000 to 10000 nM.
For `CNCC(O)COc1cccc(-c2nc(NC3CCN(C(=O)OC)CC3)c(C)c(-c3c(C)noc3C)n2)c1Cl` (stereo not shown) [Example 107-3], the IC50 in test [1] was no less than 20 µM; on human CARM1 (PRMT4), 3000 to 10000 nM.
As for `CNCC(O)COc1cccc(-c2nc(NC3CCOCC3)cc(-c3ccc(S(C)(=O)=O)cc3)n2)c1` (stereo not shown) [Example 656-1a], the IC50 in test [1] was no less than 20 µM; on human CARM1 (PRMT4), 100 to 1000 nM.
As for `CNCC(O)COc1cccc(-c2nc(NC3CCOC3)c(C)c(N3CC[C@H](S(C)(=O)=O)C3)n2)c1` (stereo partly shown) [Example 431-1a], the IC50 in test [1] was in the range of 10 to 20 µM; at human CARM1 (PRMT4), 100 to 1000 nM.
`CNCC(O)COc1cccc(-c2nc(-c3c(C)noc3C)c(C)c(N3CCO[C@@H](CO)C3)n2)c1` (stereo partly shown) [Example 123-1a]: the IC50 is 5 to 10 µM in test [1] and 100 to 1000 nM at human CARM1 (PRMT4).
As for `CNCC(O)COc1cccc(-c2nc(C3CCN(S(C)(=O)=O)CC3)cc(N(C)C3CCOCC3)n2)c1` (stereo not shown) [Example 527-1a], the IC50 in test [1] lay in the range of 5 to 10 µM; on human CARM1 (PRMT4), 100 to 1000 nM.
On the same counts, the results for `CNCC(O)COc1cccc(-c2nc(N[C@@H]3CCOC3)cc(N3CCOCC3)n2)c1` (stereo partly shown) [Example 387-1a] are 10 to 20 µM and 100 to 1000 nM.
As to `CNCC(O)COc1cccc(-c2nc(NCCOC)cc(-c3ccc(OC)c(OC)c3)n2)c1` (stereo not shown) [Example 630-1a], the IC50 in test [1] was no less than 20 µM; at human CARM1 (PRMT4), 100 to 1000 nM.
On to `CNCC(O)COc1cccc(-c2nc(NC3CCOCC3)cc(N(C3CC3)[C@@H]3CCOC3)n2)c1` (stereo partly shown) [Example 372-1a], for which the half-inhibitory concentration (IC50) was in the range of 10 to 20 µM in test [1] and 1000 to 3000 nM on human CARM1 (PRMT4).
On the same counts, the results for `CNCC(O)COc1cccc(-c2nc(-c3cc4ccccc4o3)cc(N(CCOC)CCOC)n2)c1` (stereo not shown) [Example 640-1a] are no less than 20 µM and 100 to 1000 nM.
For `CNCC(O)COc1cccc(-c2nc(N[C@H]3C[C@H](C(=O)O)C3)c(C)c(-c3c(C)noc3C)n2)c1` (stereo partly shown) [Example 222-1a] the same measures were 10 to 20 µM and 100 to 1000 nM.
As for `CNCC(O)COc1cccc(-c2nc(N[C@@H]3CCOC3)c(C)c(-c3cnn(CC(F)(F)F)c3)n2)c1` (stereo partly shown) [Example 414-1a], the 50% inhibitory concentration (IC50) in test [1] is 10 to 20 µM; at human CARM1 (PRMT4) it was 100 to 1000 nM.
For `CNCC(O)COc1cccc(-c2nc(N[C@@H]3CC[C@@H](O)C3)c(C)c(N3CCOCC3)n2)c1` (stereo partly shown) [Example 679-1a] the same measures were no less than 20 µM and 1000 to 3000 nM.
As for `CNCC(O)COc1cccc(-c2nc(NC3(C)CCOCC3)cc(N3CCOCC3)n2)c1` (stereo not shown) [Example 684-1a], the concentration for half-maximal inhibition (IC50) in test [1] was no less than 20 µM; on human CARM1 (PRMT4) it was 1000 to 3000 nM.
As for `CNCC(O)COc1cccc(-c2nc(NC3CCOC3)c(C)c(C(=O)NC3CCOCC3)n2)c1` (stereo not shown) [Example 383-1a], the IC50 in test [1] was in the range of 10 to 20 µM; on human CARM1 (PRMT4) it was 1000 to 3000 nM.
On the same counts, the results for `CNCC(O)COc1cccc(-c2nc(Nc3c(C)noc3C)cc(N(C)C3CCOCC3)n2)c1` (stereo not shown) [Example 597-1a] are 10 to 20 µM and 100 to 1000 nM.
With `CNCC(O)COc1cccc(-c2nc(N(C)c3cnc(OC)nc3)cc(N(C)C3CCOCC3)n2)c1` (stereo not shown) [Example 532-1a], the IC50 was 5 to 10 µM in test [1] and 100 to 1000 nM at human CARM1 (PRMT4).
For `CNCC(O)COc1cccc(-c2nc(N3CCC(O)(CCO)CC3)cc(N(C)C3CCOCC3)n2)c1` (stereo not shown) [Example 591-1a], the values for the IC50 (in test [1]; on human CARM1 (PRMT4)) were 10 to 20 µM and 100 to 1000 nM, respectively.
With `CCNc1nc(-c2cccc(OCC(O)CNC)c2)nc(NC2CCOCC2)c1C` (stereo not shown) [Example 676-1a], the half-maximal inhibitory concentration (IC50) in test [1] was no less than 20 µM; on human CARM1 (PRMT4) it was 1000 to 3000 nM.
Turning to `CNCC(O)COc1cccc(-c2nc(NC3CCOCC3)cc(-c3cncnc3)n2)c1` (stereo not shown) [Example 655-1a], the IC50 in test [1] was no less than 20 µM; on human CARM1 (PRMT4), 100 to 1000 nM.
Regarding `CNCC(O)COc1cccc(-c2nc(-c3c(C)noc3C)c(C)c(-c3nc(C)cn3C)n2)c1` (stereo not shown) [Example 130-1a], the 50% inhibitory concentration (IC50) in test [1] is 10 to 20 µM; at human CARM1 (PRMT4), 100 to 1000 nM.
For the compound `CNC[C@H](O)COc1ccc(F)c(-c2nc(-c3c(C)noc3C)c(C)c(-c3c(C)noc3C)n2)c1` [Example 81-3], the IC50 is no less than 20 µM in test [1] and 1000 to 3000 nM on human CARM1 (PRMT4).
For `CNCC(O)COc1cccc(-c2nc(N[C@@H]3CCOC3)c(C)c(N3CCN(C(C)=O)C4(CC4)C3)n2)c1` (stereo partly shown) [Example 423-1a] the same measures were 10 to 20 µM and 100 to 1000 nM.
Regarding `CNCC(O)COc1cccc(-c2nc(N3CCOCC3)cc(N(C3CCOCC3)C3CC3)n2)c1` (stereo not shown) [Example 601-1a], the figures for the IC50 (in test [1]; at human CARM1 (PRMT4)) were 10 to 20 µM and 100 to 1000 nM, respectively.
Take `CNCC(O)COc1cccc(-c2nc(N[C@@H]3CCOC3)c(C)c(-c3ccnc(NC)c3)n2)c1` (stereo partly shown) [Example 388-1a]: the concentration for half-maximal inhibition (IC50) fell in the range of 10 to 20 µM in test [1] and 100 to 1000 nM on human CARM1 (PRMT4).
`CNCC(O)COc1cccc(-c2nc(NCC(F)(F)F)cc(-c3ccc(S(C)(=O)=O)cc3)n2)c1` (stereo not shown) [Example 627-1a]: the 50% inhibitory concentration (IC50) in test [1] was no less than 20 µM; at human CARM1 (PRMT4), 100 to 1000 nM.
For `CCS(=O)(=O)N1CCN(c2cc(N(C)C3CCOCC3)nc(-c3cccc(OCC(O)CNC)c3)n2)C[C@@H]1C` (stereo partly shown) [Example 497-1a] the same measures were less than 5 µM and 100 to 1000 nM.
Turning to `CNCC(O)COc1cccc(-c2nc(C(=O)N(C)CC3CCOCC3)cc(N(C)C3CCOCC3)n2)c1` (stereo not shown) [Example 592-1a], the results for the IC50 (in test [1]; at human CARM1 (PRMT4)) were 10 to 20 µM and 100 to 1000 nM, respectively.
For `CNCC(O)COc1cccc(-c2nc(N[C@@H]3CCOC3)c(F)c(N3CCOCC3)n2)c1` (stereo partly shown) [Example 433-1a], the half-maximal inhibitory concentration (IC50) in test [1] fell in the range of 5 to 10 µM; on human CARM1 (PRMT4) it was 100 to 1000 nM.
Regarding `CNCC(O)COc1cccc(-c2nc(N[C@@H]3CC[C@H](O)C3)c(C)c(N3CCOCC3)n2)c1` (stereo partly shown) [Example 687-1a], the concentration for half-maximal inhibition (IC50) in test [1] is no less than 20 µM; on human CARM1 (PRMT4) it was 100 to 1000 nM.
For `CNCC(O)COc1cccc(-c2nc(N[C@H]3C[C@H](O)C3)cc(N(C)C3CCOCC3)n2)c1` (stereo partly shown) [Example 590-1a] the same measures were 10 to 20 µM and 100 to 1000 nM.
On the same counts, the results for `CNCC(O)COc1cccc(-c2nc(-c3c[nH]cn3)cc(N(C)C3CCOCC3)n2)c1` (stereo not shown) [Example 589-1a] are 10 to 20 µM and 100 to 1000 nM.
`CNCC(O)COc1cccc(-c2nc(N3CCC4(CCOC4)CC3)cc(N(C)C3CCOCC3)n2)c1` (stereo not shown) [Example 582-1a]: the IC50 in test [1] was in the range of 10 to 20 µM; at human CARM1 (PRMT4), 100 to 1000 nM.
For the compound `CCCCOc1nc(-c2ccc(F)c(OCC(O)CNC)c2)nc(-c2c(C)noc2C)c1C` (stereo not shown) [Example 50-3], the values for the 50% inhibitory concentration (IC50) (in test [1]; on human CARM1 (PRMT4)) were no less than 20 µM and 100 to 1000 nM, respectively.
Regarding `CCN(c1nc(-c2cccc(OCC(O)CNC)c2)nc(N2CCOCC2)c1C)[C@@H]1CCOC1` (stereo partly shown) [Example 375-1a], the IC50 in test [1] fell in the range of 10 to 20 µM; at human CARM1 (PRMT4), 1000 to 3000 nM.
